Inhibition data for one compound are collected here from paper PMC6934184, “Selective DNA-PKcs inhibition extends the therapeutic index of localized radiotherapy and chemotherapy” (The Journal of Clinical Investigation, 2019).

Molecules are shown by their SMILES.

In the test the target is T1, MERTK (cMER) A708S (Homo sapiens, UniProt Q12866, A708S).
T1 construct: purchased Thermo Fisher Scientific (Life Technologies) SelectScreen
The test is described as follows: SelectScreen LanthaScreen. The note with it: read-out: % displacement. Format: binding. Here is the method:
The in vitro kinase selectivity of NU5455 was determined using the SelectScreen Broad Assay Panel (Thermo Fisher Scientific) involving activity and binding assays (Supplemental Table 1). […] Class IA PI3Ks were measured using the p85α subunit.
Kinase [ATP] % Assay Kinase [ATP] % Assay Kinase [ATP] % Assay Kinase [ATP] % Assay […]
FGR Km app 12.1 Z SRC N1 Km app 3.9 Z MERTK (cMER) A708S n/a 0.6 L RET M918T n/a -3.5 L […]
SGK (SGK1) Km app 8.5 Z MAP4K2 (GCK) Km app 2.7 Z TLK2 n/a -0.3 L STK38 (NDR) n/a -5.9 L
MERTK (cMER) Km app 8.3 Z CDK2/cyclin A Km app 2.7 Z TGFBR1 (ALK5) n/a -0.4 L MATK (HYL) Km app -6.3 Z
FYN Km app 8.3 Z EPHA1 Km app 2.7 Z CLK3 Km app -0.5 Z ABL1 E255K Km app -6.6 Z
TEC n/a 8.1 L CDK2/cyclin E1 n/a 2.7 L MAP3K14 (NIK) n/a -0.5 L STK17A (DRAK1) n/a -6.6 L
KIT V654A n/a 8.1 L TESK2 n/a 2.7 L AKT3 (PKB gamma) Km app -0.5 Z JAK2 JH1 JH2 Km app -6.7 Z
ROS1 Km app 8.0 Z SPHK1 Km app 2.7 A MAP3K9 (MLK1) Km app -0.5 Z PRKACB (PRKAC beta) n/a -6.8 L
FGFR3 K650E Km app 7.9 Z AMPK A2/B1/G1 Km app 2.6 Z IKBKB (IKK beta) Km app -0.6 Z PDGFRA (PDGFR alpha) Km app -6.8 Z
RAF1 (cRAF) Y340D Y341D 100 7.9 Z DYRK3 Km app 2.6 Z CAMK2A (CaMKII alpha) Km app -0.6 Z NEK9 Km app -7.2 Z
PI4KA (PI4K alpha) 10 7.8 A CSNK1D (CK1 delta) Km app 2.6 Z PRKCB1 (PKC beta I) Km app -0.7 Z PDK1 Km app -7.3 Z
HIPK2 Km app 7.8 Z ACVR2A n/a 2.5 L TTK n/a -0.7 L RPS6KB1 (p70S6K) Km app -7.8 Z […]

T1 sequence (Q12866 21-999 A708S): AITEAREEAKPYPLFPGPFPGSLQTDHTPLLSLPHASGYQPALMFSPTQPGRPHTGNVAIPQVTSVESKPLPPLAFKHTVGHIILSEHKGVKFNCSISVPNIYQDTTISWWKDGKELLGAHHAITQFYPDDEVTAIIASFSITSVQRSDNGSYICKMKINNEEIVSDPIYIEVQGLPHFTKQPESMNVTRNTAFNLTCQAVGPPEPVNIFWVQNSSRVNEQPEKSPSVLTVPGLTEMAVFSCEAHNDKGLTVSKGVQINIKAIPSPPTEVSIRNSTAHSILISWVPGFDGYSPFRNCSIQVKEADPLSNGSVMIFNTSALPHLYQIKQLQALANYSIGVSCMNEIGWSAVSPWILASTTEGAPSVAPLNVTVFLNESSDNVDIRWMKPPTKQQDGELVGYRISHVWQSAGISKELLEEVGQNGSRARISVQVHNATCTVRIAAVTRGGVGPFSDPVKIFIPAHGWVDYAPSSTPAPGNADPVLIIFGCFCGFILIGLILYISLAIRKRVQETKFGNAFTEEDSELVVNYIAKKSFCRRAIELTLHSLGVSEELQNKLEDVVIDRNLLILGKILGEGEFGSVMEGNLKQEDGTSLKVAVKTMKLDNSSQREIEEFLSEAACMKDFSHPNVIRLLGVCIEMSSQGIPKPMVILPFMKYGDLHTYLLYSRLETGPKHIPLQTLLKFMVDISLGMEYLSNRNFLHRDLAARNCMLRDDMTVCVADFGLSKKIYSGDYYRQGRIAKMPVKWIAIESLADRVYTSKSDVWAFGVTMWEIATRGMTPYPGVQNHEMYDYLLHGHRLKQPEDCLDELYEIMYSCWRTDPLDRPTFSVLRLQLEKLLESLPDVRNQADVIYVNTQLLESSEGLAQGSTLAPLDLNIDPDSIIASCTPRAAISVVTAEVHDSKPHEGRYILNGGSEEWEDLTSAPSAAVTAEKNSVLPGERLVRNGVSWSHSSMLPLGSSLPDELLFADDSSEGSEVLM

In the case of `CN(C(=O)CN1CCOCC1)c1ccc2sc3c(-c4cccc5c(=O)cc(N6CC7CCC(C6)O7)oc45)cccc3c2c1` [NU5455], the inhibition at 1 µM stood at 0.6%.
